In patent publication US9018208B2, “Heterocycles as potassium channel modulators” (Icagen Inc., priority 2007, dated 2015):
Read-outs that look alike come from different tables or passages of the source.

Tested on: SH-SY5Y M-currents (KCNQ2, KCNQ3 and KCNQ5)
Assay: SH-SY5Y native cell line FLIPR assay (voltage-sensitive dye DiBAC)
Assay type: cell-based, mouse neuroblastoma, rat glioma hybrid cell line
Settings: SH-SY5Y native cell line, read-out: SH-SY5Y EC50
Description: SH-SY5Y cells, a mouse neuroblastoma, rat glioma hybrid cell line, functionally express M-currents (Robbins et al., J. Physiol. 451: 159-85 (1992). SH-SY5Y M-currents are likely comprised, at least in part, of KCNQ2, KCNQ3 and KCNQ5, since these genes are reportedly robustly expressed in differentiated SH-SY5Y cells (Selyanko et al., J. Neurosci. 19(18): 7742-56 (1999); Schroeder et al., J. Biol. Chem. 275(31): 24089-95 (2000)) and KCNQ3 dominant-negative constructs reduce M-current density in these cells (Selyanko et al., J. Neurosci. 22(5): RC212 (2002).
SH-SY5Y were maintained in DMEM (high glucose) supplemented with 10% fetal bovine serum, 0.05 mM pyridoxine, 0.1 mM hypoxanthine, 400 nM aminopterin, […], 50 μgml^−1 gentamycin and 10 mM HEPES, in an incubator at 37° C. with a humidified atmosphere of 5% CO2. Cells were plated in 96 well plates differentiated by addition of 10 μM PGE1 and 50 μM isomethylbutylxanthine to the growth media prior to study.
Differentiated SH-SY5Y cells were loaded with voltage-sensitive dye by incubation in Earls Balanced Salt Solution (EBSS) containing […] DiBAC for 1 h. Following loading, drug solution containing […] DiBAC was added to each well. Changes in fluorescence were measured every 30 s for 25 min. The maximum change in fluorescence was measured and expressed as a percentage of the maximum response obtained in the presence of a positive control agent.

EC50 (FLIPR assay, Table 2) [µM]	Compound	other results
–	CC(C)n1cc(-c2c(NC(=O)CC(C)(C)C)nc3ccc(F)cn23)cn1 [Compound 370, N-(6-fluoro-3-(1-isopropyl-1H-pyrazol-4-yl)imidazo[1,2-a]pyridin-2-yl)-3,3-dimethylbutanamide]	EC50 (FLIPR assay (Table 3)): 3 to 10 µM
–	O=C(Cc1ccc(F)cc1)Nc1nc2ccc(C(F)(F)F)cn2c1C1CC1 [Compound 70, N-(3-cyclopropyl-6-(trifluoromethyl)imidazo[1,2-a]pyridin-2-yl)-2-(4-fluorophenyl)acetamide]	EC50 (FLIPR assay, Table 1): < 0.5 µM
< 0.5	Cc1ccn2c(-c3ccc(F)cc3)c(NC(=O)Cc3ccccc3)nc2c1 [Compound 168, N-(3-(4-fluorophenyl)-7-methylimidazo[1,2-a]pyridin-2-yl)-2-phenylacetamide]	–
0.5 to 3	O=C(Nc1nc2ccc(F)cn2c1-c1ccc(OC(F)(F)F)c(F)c1)C1CCC1 [Compound 334, N-(6-fluoro-3-(3-fluoro-4-(trifluoromethoxy)phenyl)imidazo[1,2-a]pyridin-2-yl)cyclobutanecarboxamide]	–
–	CC(C)(C)CC(=O)Nc1nc2ccccn2c1CC(C)(C)C [Compound 88, 3,3-dimethyl-N-(3-neopentylimidazo[1,2-a]pyridin-2-yl)butanamide]	EC50 (FLIPR assay, Table 1): 0.5 to 3 µM
0.5 to 3	Cc1ccc(-c2c(NC(=O)CC(C)(C)C)nc3ccc(F)cn23)cc1 [Compound 273, N-(6-fluoro-3-p-tolylimidazo[1,2-a]pyridin-2-yl)-3,3-dimethylbutanamide]	–
< 0.5	O=C(Cc1ccc(F)cc1)Nc1nc2ccc(F)cn2c1-c1cc(F)cc(F)c1 [Compound 229, N-(3-(3,5-difluorophenyl)-6-fluoroimidazo[1,2-a]pyridin-2-yl)-2-(4-fluorophenyl)acetamide]	–
–	Cc1cccc2nc(NC(=O)CC(C)C(F)(F)F)c(-c3cccc(C(F)(F)F)c3)n12 (stereo not shown) [Compound 420, 4,4,4-trifluoro-3-methyl-N-(5-methyl-3-(3-(trifluoromethyl)phenyl)imidazo[1,2-a]pyridin-2-yl)butanamide]	EC50 (FLIPR assay, Table 4): 0.5 to 3 µM
–	Cc1ccc(-c2c(N(C(=O)CC(C)(C)C)C(=O)CC(C)(C)C)nc3ccc(F)cn23)nc1 [Compound 356, N-(3,3-dimethylbutanoyl)-N-(6-fluoro-3-(5-methylpyridin-2-yl)imidazo[1,2-a]pyridin-2-yl)-3,3-dimethylbutanamide]	EC50 (FLIPR assay (Table 3)): 3 to 10 µM
0.5 to 3	O=C(CC1CCOCC1)Nc1nc2ccc(F)cn2c1-c1ccc(OC(F)(F)F)cc1 [Compound 251, N-(6-fluoro-3-(4-(trifluoromethoxy)phenyl)imidazo[1,2-a]pyridin-2-yl)-2-(tetrahydro-2H-pyran-4-yl)acetamide]	–
< 0.5	O=C(Cc1ccc(Cl)cc1)Nc1nc2ccc(F)cn2c1-c1ccc(OC(F)(F)F)cc1 [Compound 238, 2-(4-chlorophenyl)-N-(6-fluoro-3-(4-(trifluoromethoxy)phenyl)imidazo[1,2-a]pyridin-2-yl)acetamide]	–
–	CC(C)(CC(=O)Nc1nc2ccc(C(F)(F)F)cn2c1C1CCCCC1)C(F)(F)F [Compound 441, N-(3-cyclohexyl-6-(trifluoromethyl)imidazo[1,2-a]pyridin-2-yl)-4,4,4-trifluoro-3,3-dimethylbutanamide]	EC50 (FLIPR assay (Table 6)): < 0.5 µM
< 0.5	O=C(Cc1cccc(F)c1)Nc1nc2ccc(F)cn2c1-c1ccc(OC(F)(F)F)cc1 [Compound 240, N-(6-fluoro-3-(4-(trifluoromethoxy)phenyl)imidazo[1,2-a]pyridin-2-yl)-2-(3-fluorophenyl)acetamide]	–
< 0.5	CC(C)(C)CC(=O)Nc1nc2ccc(F)cn2c1-c1ccc(F)cc1 [Compound 103, N-(6-fluoro-3-(4-fluorophenyl)imidazo[1,2-a]pyridin-2-yl)-3,3-dimethylbutanamide]	–
< 0.5	COc1ccc(-c2c(NC(=O)CC(C)(C)C)nc3ccc(F)cn23)cc1C(F)(F)F [Compound 200, N-(6-fluoro-3-(4-methoxy-3-(trifluoromethyl)phenyl)imidazo[1,2-a]pyridin-2-yl)-3,3-dimethylbutanamide]	–
< 0.5	CC(CC(=O)Nc1nc2ccc(F)cn2c1-c1ccc(OC(F)(F)F)c(F)c1)C(F)(F)F (stereo not shown) [Compound 313, 4,4,4-trifluoro-N-(6-fluoro-3-(3-fluoro-4-(trifluoromethoxy)phenyl)imidazo[1,2-a]pyridin-2-yl)-3-methyl butanamide]	–
–	Cc1c(NC(=O)C(F)(F)F)nc2ccc(F)cn12 [Compound 421, 2,2,2-trifluoro-N-(6-fluoro-3-methylimidazo[1,2-a]pyridin-2-yl)acetamide]	EC50 (FLIPR assay, Table 5): 3 to 10 µM

EC50 (FLIPR assay, Table 2) [µM]	Compound	other results
0.5 to 3	O=C(CCC(F)(F)F)Nc1nc2ccc(F)cn2c1-c1ccc(OC(F)(F)F)c(F)c1 [Compound 303, 4,4,4-trifluoro-N-(6-fluoro-3-(3-fluoro-4-(trifluoromethoxy)phenyl)imidazo[1,2-a]pyridin-2-yl)butanamide]	–
0.5 to 3	O=C(CC1CC1)Nc1nc2ccc(F)cn2c1-c1cccc(OC(F)(F)F)c1 [Compound 265, 2-cyclopropyl-N-(6-fluoro-3-(3-(trifluoromethoxy)phenyl)imidazo[1,2-a]pyridin-2-yl)acetamide]	–
< 0.5	CC(C)(C)CC(=O)Nc1nc2ccc(F)cn2c1-c1ccc(Cl)cc1 [Compound 150, N-(3-(4-chlorophenyl)-6-fluoroimidazo[1,2-a]pyridin-2-yl)-3,3-dimethylbutanamide]	–
–	CC(C)CCc1c(NC(=O)CC(C)(C)C)nc2ccc(C(F)(F)F)cn12 [Compound 31, N-(3-isopentyl-6-(trifluoromethyl)imidazo[1,2-a]pyridin-2-yl)-3,3-dimethylbutanamide]	EC50 (FLIPR assay, Table 1): < 0.5 µM
–	CC(C)(C)Cc1c(NC(=O)Cc2ccc(C(F)(F)F)cc2)nc2ccc(C(F)(F)F)cn12 [Compound 61, N-(3-neopentyl-6-(trifluoromethyl)imidazo[1,2-a]pyridin-2-yl)-2-(4-(trifluoromethyl)phenyl)acetamide]	EC50 (FLIPR assay, Table 1): < 0.5 µM
< 0.5	CC1(CC(=O)Nc2nc3ccc(F)cn3c2-c2ccc(F)cc2)CCCC1 [Compound 179, N-(6-fluoro-3-(4-fluorophenyl)imidazo[1,2-a]pyridin-2-yl)-2-(1-methylcyclopentyl)acetamide]	–
0.5 to 3	CC(C)(C)CC(=O)Nc1nc2ccc(F)cn2c1-c1ccc(F)cc1F [Compound 116, N-(3-(2,4-difluorophenyl)-6-fluoroimidazo[1,2-a]pyridin-2-yl)-3,3-dimethylbutanamide]	–
0.5 to 3	O=C(Cc1ccc(F)cc1)Nc1nc2ccccn2c1-c1ccc(F)cc1 [Compound 203, 2-(4-fluorophenyl)-N-(3-(4-fluorophenyl)imidazo[1,2-a]pyridin-2-yl)acetamide]	–
0.5 to 3	CC(C)(C)CC(=O)Nc1nc2ccccn2c1-c1cccc(C(F)(F)F)c1 [Compound 336, 3,3-dimethyl-N-(3-(3-(trifluoromethyl)phenyl)imidazo[1,2-a]pyridin-2-yl)butanamide]	–
< 0.5	N-(6-fluoro-3-(3-(trifluoromethoxy)phenyl)imidazo yl)cycloheptanecarboxamide [Compound 293]	–
3 to 10	O=C(CC(F)(F)F)Nc1nc2ccc(F)cn2c1-c1ccccc1 [Compound 95, 3,3,3-trifluoro-N-(6-fluoro-3-phenylimidazo[1,2-a]pyridin-2-yl)propanamide]	–
< 0.5	O=C(Cc1cccc(Cl)c1)Nc1nc2ccc(F)cn2c1-c1cccc(Cl)c1 [Compound 300, 2-(3-chlorophenyl)-N-(3-(3-chlorophenyl)-6-fluoroimidazo[1,2-a]pyridin-2-yl)acetamide]	–
3 to 10	O=C(COc1ccccc1)Nc1nc2ccc(F)cn2c1-c1ccc(OC(F)(F)F)cc1 [Compound 231, N-(6-fluoro-3-(4-(trifluoromethoxy)phenyl)imidazo[1,2-a]pyridin-2-yl)-2-phenoxyacetamide]	–
< 0.5	CC(C)(C)CC(=O)Nc1nc2ccccn2c1-c1ccc(C(F)(F)F)cc1 [Compound 223, 3,3-dimethyl-N-(3-(4-(trifluoromethyl)phenyl)imidazo[1,2-a]pyridin-2-yl)butanamide]	–
–	CC(C)(CC(=O)Nc1nc2ccc(C(F)(F)F)cn2c1C1CC1)C(F)(F)F [Compound 432, N-(3-cyclopropyl-6-(trifluoromethyl)imidazo[1,2-a]pyridin-2-yl)-4,4,4-trifluoro-3,3-dimethylbutanamide]	EC50 (FLIPR assay (Table 6)): < 0.5 µM
–	CC(C)(C)CC(=O)Nc1nc2ccc(F)cn2c1Cc1ccc(F)cc1 [Compound 16, N-(6-fluoro-3-(4-fluorobenzyl)imidazo[1,2-a]pyridin-2-yl)-3,3-dimethylbutanamide]	EC50 (FLIPR assay, Table 1): < 0.5 µM

Compound	EC50 (FLIPR assay, Table 2) [µM]	other results
CC(C)(C)OCC(=O)Nc1nc2ccc(F)cn2c1-c1ccc(C(F)(F)F)cc1 [Compound 206, 2-tert-butoxy-N-(6-fluoro-3-(4-(trifluoromethyl)phenyl)imidazo[1,2-a]pyridin-2-yl)acetamide]	3 to 10	–
